Assay results reported in EPA's ToxValDB 9.5 (doi:10.2903/j.efsa.2015.4308).

Assays:
Typhlodromus pyri = test: LR50; higher = less toxic; conditions: not reported; mortality
Aphidius rhopalosiphi = test: LR50; higher = less toxic; conditions: not reported; mortality
Canidae = conditions: chronic; duration: 1 years; oral; F; Dog Other; body weight
Folsomia candida = conditions: chronic/long-term
Oryctolagus sp. = conditions: reproduction developmental; body weight
Bibionidae = conditions: chronic/long-term
Hypoaspis aculeifer = conditions: chronic/long-term
Pimephales promelas = conditions: chronic/long-term; duration: 34 days; growth
Daphnia magna = conditions: chronic/long-term; duration: 21 days; reproduction
Oncorhynchus mykiss = conditions: acute; duration: 96 hours; mortality

`[Br-].[Br-].c1cc[n+]2c(c1)-c1cccc[n+]1CC2` [Diquat dibromide] was tested, and the LR50 (Typhlodromus pyri) was 2.9 g/ha, the LR50 (Aphidius rhopalosiphi) was 3.2 g/ha and the LD50 (Anas platyrhynchos; acute, oral, unspecified, mortality) was 71 mg/kg-day. It also gave an NOAEL (Anas platyrhynchos; reproductive) of 0.5 mg/kg-day, an LD50 (Rattus norvegicus; acute, M, mortality) of 214 mg/kg-day and an NOAEL (Rattus norvegicus; chronic, duration: 2 years, ophthalmoscopic examination) of 0.2 mg/kg-day. For the same molecule, the NOAEL (Rattus norvegicus; reproduction developmental) was 0.2 mg/kg-day, the NOAEL (Canidae) was 0.5 mg/kg-day and the NOEC (Folsomia candida) was 9.38 mg/kg. The NOAEL (Oryctolagus sp.) was 1 mg/kg-day, the LC50 (Tagia sp.; acute, duration: 14 days, mortality) was 94.3 mg/kg and the NOEC (Tagia sp.; chronic/long-term, duration: 8 weeks) was 37 mg/kg. For the same molecule, the NOEC (Bibionidae; duration: 20 days) was 100 mg/kg, the NOEC (Bibionidae; duration: 28 days) was 1270 µg/L and the NOEC (Hypoaspis aculeifer) was 50 mg/kg. The NOEC (Pimephales promelas) was 120 µg/L, the NOEC (Daphnia magna) was 125 µg/L and the LC50 (Oncorhynchus mykiss) was 6.1 µg/mL.
